US9580390B2, “Indazole compounds as kinase inhibitors and method of treating cancer with same” (University Health Network, priority 2011, dated 2017)

How the values were obtained:
[1] = system: colon cancer cells (HCT116); assay: Cancer cell line growth inhibition (SRB assay); type: cell-based; details: Homo sapiens, HCT-116; HCT116 colon cancer cells, SRB assay; read-out: Cancer Cell Line GI50 Range HCT116
[2] = system: ovarian cancer cells (PA-1); assay: Cancer cell line growth inhibition (SRB assay); type: cell-based; details: PA-1 ovarian cancer cells, SRB assay; read-out: Cancer Cell Line GI50 Range PA-1

| Structure (SMILES) | GI50 [1] [nM] | GI50 [2] [nM] |
| --- | --- | --- |
| CO[C@@H](C(=O)Nc1ccc2[nH]nc(-c3ccc(O[C@@H]4CCN(C)C[C@@H]4F)cc3)c2c1)c1ccccc1 (relative stereo) [Example A135, (R)-N-(3-(4-(((3S,4R)-3-fluoro-1-methylpiperidin-4-yl)oxy)phenyl)-1H-indazol-5-yl)-2-methoxy-2-phenylacetamide] | 100 to 500 | 100 to 500 |
| CN1CCC(Oc2ccc(-c3n[nH]c4ccc(NC(=O)C5CCCc6ccccc65)cc34)cc2)CC1 (stereo not shown) [Example A18] | 100 to 500 | 100 to 500 |
| CN1CCN(Cc2ccc(-c3n[nH]c4ccc(NC(=O)C(c5ccsc5)N5CCCC5)cc34)cc2)CC1 (stereo not shown) [Example A67, N-(3-(4-((4-methylpiperazin-1-yl)methyl)phenyl)-1H-indazol-5-yl)-2-(pyrrolidin-1-yl)-2-(thiophen-3-yl)acetamide] | 100 to 500 |  |
| O=C(Nc1ccc2[nH]nc(-c3ccc(NC4CCCCC4)cc3)c2c1)C(c1ccsc1)N1CCCC1 (stereo not shown) [Example A68, N-(3-(4-(cyclohexylamino)phenyl)-1H-indazol-5-yl)-2-(pyrrolidin-1-yl)-2-(thiophen-3-yl)acetamide] | > 500 |  |
| O=C(Nc1ccc2[nH]nc(-c3ccc(NC4CCCC4)cc3)c2c1)C(c1ccsc1)N1CCCC1 (stereo not shown) [Example A70, N-(3-(4-(cyclopentylamino)phenyl)-1H-indazol-5-yl)-2-(pyrrolidin-1-yl)-2-(thiophen-3-yl)acetamide] | 100 to 500 |  |
| CN1CCC(Oc2ccc(-c3n[nH]c4ccc(NC(=O)N5CCCc6ccccc65)cc34)cc2)CC1 [Example A73, N-(3-(4-((1-methylpiperidin-4-yl)oxy)phenyl)-1H-indazol-5-yl)-3,4-dihydroquinoline-1(2H)-carboxamide] | > 500 |  |
| CN1CCC(Oc2ccc(-c3n[nH]c4ccc(C(=O)NCC(C)(C)N5CCOCC5)cc34)cc2)CC1 [Example A74, N-(2-methyl-2-morpholinopropyl)-3-(4-((1-methylpiperidin-4-yl)oxy)phenyl)-1H-indazole-5-carboxamide] | > 500 |  |
| CN1CCC(Oc2ccc(-c3n[nH]c4ccc(C(=O)NCC(c5ccsc5)N5CCOCC5)cc34)cc2)CC1 (stereo not shown) [Example A75, 3-(4-((1-methylpiperidin-4-yl)oxy)phenyl)-N-(2-morpholino-2-(thiophen-3-yl)ethyl)-1H-indazole-5-carboxamide] | 100 to 500 |  |
| Cc1cc(C)c(NC(=O)Nc2ccc3[nH]nc(-c4ccc(OC5CCN(C)CC5)cc4)c3c2)c(Cl)c1 [Example A77, 1-(2-chloro-4,6-dimethylphenyl)-3-(3-(4-((1-methylpiperidin-4-yl)oxy)phenyl)-1H-indazol-5-yl)urea] | 100 to 500 |  |
| COC(C(=O)Nc1ccc2[nH]nc(-c3ccc(N4CCC(O)CC4)cc3)c2c1)c1ccsc1 (stereo not shown) [Example A87, N-(3-(4-(4-hydroxypiperidin-1-yl)phenyl)-1H-indazol-5-yl)-2-methoxy-2-(thiophen-3-yl)acetamide] | 100 to 500 | 100 to 500 |
| CN1CCOc2ccc(-c3n[nH]c4ccc(NC(=O)C(c5ccsc5)N5CCCC5)cc34)cc2C1 (stereo not shown) [Example A90, N-(3-(4-methyl-2,3,4,5-tetrahydrobenzo[f][1,4]oxazepin-7-yl)-1H-indazol-5-yl)-2-(pyrrolidin-1-yl)-2-(thiophen-3-yl)acetamide] | 100 to 500 | > 500 |
| CN1CCN(C)c2ccc(-c3n[nH]c4ccc(NC(=O)C(c5ccsc5)N5CCCC5)cc34)cc2C1 (stereo not shown) [Example A93, N-(3-(1,4-dimethyl-2,3,4,5-tetrahydro-1H-benzo[e][1,4]diazepin-7-yl)-1H-indazol-5-yl)-2-(pyrrolidin-1-yl)-2-(thiophen-3-yl)acetamide] | > 500 | > 500 |
| CN1CCC(Oc2cccc(-c3n[nH]c4ccc(NC(=O)C(c5ccsc5)N5CCCC5)cc34)c2)CC1 (stereo not shown) [Example A99, N-(3-(3-((1-methylpiperidin-4-yl)oxy)phenyl)-1H-indazol-5-yl)-2-(pyrrolidin-1-yl)-2-(thiophen-3-yl)acetamide] | > 500 | > 500 |
| COCCN1CCC(Oc2ccc(-c3n[nH]c4ccc(NC(=O)[C@H](OC)c5ccccc5)cc34)cc2)CC1 [Example A107, (R)-2-methoxy-N-(3-(4-((1-(2-methoxyethyl)piperidin-4-yl)oxy)phenyl)-1H-indazol-5-yl)-2-phenylacetamide] | 100 to 500 | 100 to 500 |
| CN1CCC(Oc2ccc(-c3n[nH]c4ccc(C(=O)NCc5ccccc5N5CCOCC5)cc34)cc2)CC1 [Example A108, 3-(4-(1-Methylpiperidin-4-yloxy)phenyl)-N-(2-morpholinobenzyl)-1H-indazole-5-carboxamide] | 100 to 500 | 100 to 500 |
| CN1CCC(Oc2ccc(-c3n[nH]c4ccc(C(=O)NCc5ccccc5CN5CCOCC5)cc34)cc2)CC1 [Example A109, 3-(4-(1-Methylpiperidin-4-yloxy)phenyl)-N-(2-(morpholinomethyl)benzyl)-1H-indazole-5-carboxamide] | > 500 | 100 to 500 |
| CC(C)(O)C1CCN(c2ccc(-c3n[nH]c4ccc(NC(=O)C(c5ccsc5)N5CCCC5)cc34)cc2)CC1 (stereo not shown) [Example A111, N-(3-(4-(4-(2-hydroxypropan-2-yl)piperidin-1-yl)phenyl)-1H-indazol-5-yl)-2-(pyrrolidin-1-yl)-2-(thiophen-3-yl)acetamide] | < 100 | < 100 |
| CC(C)(O)C1CCN(c2ccc(-c3n[nH]c4ccc(C(=O)NC(c5ccccc5)C5CC5)cc34)cc2)CC1 (stereo not shown) [Example A112, N-(cyclopropyl(phenyl)methyl)-3-(4-(4-(2-hydroxypropan-2-yl)piperidin-1-yl)phenyl)-1H-indazole-5-carboxamide] | 100 to 500 | 100 to 500 |
| CN1CCC(Oc2ccc(-c3n[nH]c4ccc(NC(=O)C(c5ccsc5)N5CCCC5)cc34)cc2N(C)C)CC1 (stereo not shown) [Example A113, N-(3-(3-(dimethylamino)-4-((1-methylpiperidin-4-yl)oxy)phenyl)-1H-indazol-5-yl)-2-(pyrrolidin-1-yl)-2-(thiophen-3-yl)acetamide] | < 100 | < 100 |

The next lines start with the values.

| GI50 [1] [nM] | GI50 [2] [nM] | Structure (SMILES) |
| --- | --- | --- |
| < 100 |  | CC[C@@H](NC(=O)c1ccc2[nH]nc(-c3ccc(OC4CCN(C)CC4)cc3)c2c1)c1cccs1 [Example A63, (R)-3-(4-((1-methylpiperidin-4-yl)oxy)phenyl)-N-(1-(thiophen-2-yl)propyl)-1H-indazole-5-carboxamide] |
| < 100 |  | CN1CCC(Oc2ccc(-c3n[nH]c4ccc(NC(=O)Nc5c(Cl)cccc5Cl)cc34)cc2)CC1 [Example A76, 1-(2,6-dichlorophenyl)-3-(3-(4-((1-methylpiperidin-4-yl)oxy)phenyl)-1H-indazol-5-yl)urea] |
| < 100 |  | CN(c1ccc(-c2n[nH]c3ccc(NC(=O)C(c4ccsc4)N4CCCC4)cc23)cc1)C1CCOCC1 (stereo not shown) [Example A78, N-(3-(4-(methyl(tetrahydro-2H-pyran-4-yl)amino)phenyl)-1H-indazol-5-yl)-2-(pyrrolidin-1-yl)-2-(thiophen-3-yl)acetamide] |
| < 100 |  | C[C@H]1CCCN1[C@H](C(=O)Nc1ccc2[nH]nc(-c3ccc(N4CCOCC4)cc3)c2c1)c1cccs1 [Example A79, (R)-2-((S)-2-methylpyrrolidin-1-yl)-N-(3-(4-morpholinophenyl)-1H-indazol-5-yl)-2-(thiophen-2-yl)acetamide] |
| < 100 |  | CN1CCC(Oc2ccc(-c3n[nH]c4ccc(NC(=O)C(c5ccsc5)N5CCCC5)cc34)cc2N)CC1 (stereo not shown) [Example A80, N-(3-(3-amino-4-((1-methylpiperidin-4-yl)oxy)phenyl)-1H-indazol-5-yl)-2-(pyrrolidin-1-yl)-2-(thiophen-3-yl)acetamide] |
| < 100 | < 100 | O=C(Nc1ccc2[nH]nc(-c3ccc(N4CCOCC4)cc3)c2c1)C(c1cccs1)N1CCCC1 (stereo not shown) [Example A82, N-(3-(4-morpholinophenyl)-1H-indazol-5-yl)-2-(pyrrolidin-1-yl)-2-(thiophen-2-yl)acetamide] |
| < 100 | 100 to 500 | O=C(Nc1ccc2[nH]nc(-c3ccc(N4CCC(O)CC4)cc3)c2c1)C(c1ccsc1)N1CCCCC1 (stereo not shown) [Example A83, N-(3-(4-(4-hydroxypiperidin-1-yl)phenyl)-1H-indazol-5-yl)-2-(piperidin-1-yl)-2-(thiophen-3-yl)acetamide] |
| < 100 | 100 to 500 | O=C(NC(c1ccccc1)C1CC1)c1ccc2[nH]nc(-c3ccc(N4CCC(O)CC4)cc3)c2c1 (stereo not shown) [Example A84, N-(cyclopropyl(phenyl)methyl)-3-(4-(4-hydroxypiperidin-1-yl)phenyl)-1H-indazole-5-carboxamide] |
| < 100 | 100 to 500 | CCc1cccc(CC)c1NC(=O)Nc1ccc2[nH]nc(-c3ccc(N4CCOCC4)cc3)c2c1 [Example A86, 1-(2,6-diethylphenyl)-3-(3-(4-morpholinophenyl)-1H-indazol-5-yl)urea] |
| < 100 | < 100 | O=C(Nc1ccc2[nH]nc(-c3ccc(N4CCC(O)CC4)cc3)c2c1)C(c1cccs1)N1CCCC1 (stereo not shown) [Example A88, N-(3-(4-(4-hydroxypiperidin-1-yl)phenyl)-1H-indazol-5-yl)-2-(pyrrolidin-1-yl)-2-(thiophen-2-yl)acetamide] |
| < 100 | < 100 | O=C(NC(c1ccccc1)C1CCC1)c1ccc2[nH]nc(-c3ccc(N4CCC(O)CC4)cc3)c2c1 (stereo not shown) [Example A100, N-(cyclobutyl(phenyl)methyl)-3-(4-(4-hydroxypiperidin-1-yl)phenyl)-1H-indazole-5-carboxamide] |
| < 100 | < 100 | O=C(Nc1ccc2[nH]nc(-c3ccc(N4CCC(O)CC4)cc3)c2c1)C(c1ccccc1)C1CC1 (stereo not shown) [Example A103, 2-cyclopropyl-N-(3-(4-(4-hydroxypiperidin-1-yl)phenyl)-1H-indazol-5-yl)-2-phenylacetamide] |
| < 100 | < 100 | O=C(NC(c1ccccc1)C1CC1)c1ccc2[nH]nc(-c3ccc(OC4CCN(CCO)CC4)cc3)c2c1 (stereo not shown) [Example A104, N-(cyclopropyl(phenyl)methyl)-3-(4-((1-(2-hydroxyethyl)piperidin-4-yl)oxy)phenyl)-1H-indazole-5-carboxamide] |
